{"source": "patent EP2706070A1", "about": "“Combination treatments involving antibodies to human PCSK9” (SANOFI, priority 2012, dated 2014)", "origin": "cited, not measured here", "key": {"[1]": {"conditions": "elimination (ezetimibe and its glucuronide: from plasma, after oral administration); cited from earlier work"}, "LDL-C": {"tested_on": "LDL-C", "conditions": "ezetimibe 10 mg/day added to maximal dose of statins, genotype-confirmed hoFH; cited from earlier work"}}, "data": [{"smiles": "O=C(O)[C@H]1O[C@@H](Oc2ccc([C@@H]3[C@@H](CC[C@H](O)c4ccc(F)cc4)C(=O)N3c3ccc(F)cc3)cc2)[C@H](O)[C@@H](O)[C@@H]1O", "note": "[ezetimibe-glucuronide]", "values": [{"measurement": "half-life", "setting": "[1]", "value": "approximately 22 hours"}]}, {"smiles": "O=C1[C@H](CC[C@H](O)c2ccc(F)cc2)[C@@H](c2ccc(O)cc2)N1c1ccc(F)cc1", "note": "[ezetimibe]", "values": [{"measurement": "total reduction of LDL-C levels", "setting": "LDL-C", "value": 27, "unit": "%"}]}]}
